# Entries after “also recorded” stand apart in the source; their conditions may differ. Read-outs that look alike come from different tables or passages of the source.
# Columns and labels:
# [1] = system: primary human microvascular endothelial cells; assay: Hypoxia assay: hypoxia induced TGFβ2 production (MSD ELISA); format: cell-based
# Protocol: The assay uses the following materials and reagents: • Human dermal microvascular endothelial cells are obtained from (Lonza, 2543). • All experiments are performed with cells between passage 4 and passage 8. […]
# Culturing endothelial cells: Dermal endothelial cells from each of the indicated donors are grown in T175 flasks with normal culturing media in 37° C./5% CO2 incubator. […] Cells are counted and plated into new T175 for further expansion or plated for the experiment as described in the protocol below. […]
# • Day 0: Cells are trypsinized, counted and plated such that each well contains 8×10^3 cells and 100 μl of media and put in an incubator overnight (37° C.) • Day 1: Media is aspirated and replaced with basal media left at 37° C. overnight-24 hours • Day 2: Basal media is replaced with 90 μL of fresh basal media. […]
# After treatment plates are left in 37° C. […] Supernatant is collected and TGFβ2 μlevels are measured using MSD ELISA.
# Dermal microvascular endothelial cells from three normal donors are plated and grown to confluence. […] Cells and supernatants are collected after 48 hours and TGFβ2 μlevels are measured by MSD-ELISA. MSD plates are read using the MSD QuickPlex SQ 120 Instrument. […]
# [2] = system: bleomycin-induced dermal fibrosis; format: in vivo
# [3] = system: bleomycin-induced pulmonary fibrosis; assay: Bleomycin-induced pulmonary fibrosis, therapeutic dosing; format: in vivo, C57Bl/6 mice
# Protocol: Compounds and formulation: Compound: Compound 114 (sample ID 30295026), batch 5 and EX00076637 (EX76637/riociguat), sample ID 17810950, batch 5 are both dissolved in Methylcellulose solution. The concentration is 10 mg/kg, 3 mg/kg and 1 mg/kg in a volume of 0.1 ml p.o. Nintedanib ethanesulfonate is prepared freshly every second day. The concentration is 60 mg/kg in a volume of 0.1 ml p.o. Hydroxyproline assay: The amount of collagen protein in skin samples is determined via hydroxyproline assay. After digestion of full skin thickness punch biopsies (Ø 3 mm) derived from the upper back in 6 M HCl for three hours at 120° C., the pH of the samples is adjusted to 6 with 6 M NaOH. For lungs, the middle lobe is analyzed. Afterwards, 0.06 M chloramine T is added to each sample and incubated for 20 min at room temperature. Next, 3.15 M perchloric acid and 20% p-dimethylaminobenzaldehyde are added and samples are incubated for additional 20 min at 60° C. The absorbance is determined at 557 nm with a Spectra MAX 190 microplate spectrophotometer using a standard curve generated with purified type I collagen (Sigma-Aldrich). In the model of bleomycin-induced lung fibrosis, fibrosis is induced by a single intratracheal injection of 50 μl bleomycin at day 0. Mice injected with equal volumes of 0.9% NaCl served as controls. The outcome is analyzed after 28 days. Treatment is started at day 15 post intratracheal installation of bleomycin and thus at a timepoint, when fibrosis is already preestablished. […] Histological evaluation of pulmonary fibrosis: Whole lungs are excised, fixed in 4% formalin for 6 h and embedded in paraffin. […] are cut and stained with Sirius Red. Images are captured using a Hamamatsu nano sumo S60 slide scanner microscope (Hamamatsu, Herrsching am Ammersee, Germany). Histological changes of pulmonary fibrosis are quantified by Ashcroft Scoring. The analysis is performed in a blinded manner. […] Statistics: All data are presented as median ±range, and differences between the groups are tested for their statistical significance by Mann-Whitney U non-parametric test for non-related samples.
# [4] = system: platelet-rich plasma (PRP) from healthy donor volunteers; assay: Activation of PRP by ADP and CXCL4 detection by ELISA; format: cell-based, human; details: for ADP-induced CXCL4 production: PRP of 10 donors
# Protocol: • Compound 114 (sample ID: 30295026, batch: 5) • EX0076637 (sample ID: 17810950, batch: 5) • Nintedanib esilate (Boehringer Ingelheim, Manufacture #67653, lot #1078235) • EX0000076 (sample ID: 15614118, batch: 1) • Blood from healthy donor volunteers • Plastic blood collection tubes with sodium citrate (BD biosciences, 363083) • 50 ml conical tube (Corning, 430828) • BSA solution, 30% in saline, fatty acid free, aseptically filled (Sigma, A9205) • ADP (Sigma, 01905-250MG-F) • Tyrode's buffer (Sigma, T2397) • HEPES (Gibco, 15630-080) • DMSO (Sigma, D2650) • 1 ml deep well plate (Thermo Scientific, 260251) • Sterile 0.22 um PVDF filter plate (Millipore, MAGVS2210) • 96 well microplate (Thermo Scientific, 249946) • CXCL4 ELISA kit (Abcam, ab189573 and R&D systems, DPF40)
# Buffer preparation: HEPES-Tyrode BSA buffer: Tyrode's buffer supplemented with 0.35% BSA and 5 mM HEPES.
# Generating platelet-rich plasma (PRP): Blood is collected from healthy donor volunteers, into plastic sodium citrate tubes. The first two collected tubes are discarded. The remaining blood is processed within 30 mins of blood drawing. The blood is poured into 50 ml conical tubes without exceeding 35 ml per tube and centrifuged at 200×g for 16 minutes at room temperature with acceleration set at half of maximum speed and deceleration off. After centrifugation, the top layer (PRP) is carefully transferred to a new tube by avoiding the buffy coat. The PRP is rested at room temperature for 5-15 minutes. The PRP is then ready to use for experiment as described in protocol below.
# (§1) Preparation of Compound: 5.2 mg of Compound 114 is dissolved in […] of 100% DMSO at a concentration of 20 mM. The compound solution is then diluted to 10 mM in 100% DMSO. 10 mM of the compound solution is then diluted to 1 mM and 100 μM in 100% DMSO and then secondarily diluted to 100 μM, 10 μM, and 1 μM in HEPES-Tyrode BSA buffer, making 10× stock solutions.
# as §1, with “Preparation of Compound 114 and EX 76637: 5.2 mg” for “Preparation of Compound: 5.2 mg”, “of 20 mM. 2.3 mg of EX 76637 is dissolved in 109 μl of 100% DMSO at a concentration of 50 mM. The” for “of 20 mM. The”, “and […] in 100%” for “and 100 μM in 100%”
# Preparation of nintedanib: 2.9 mg of nintedanib is dissolved in 446.3 μl of 100% DMSO at a concentration of 10 mM. The compound solution is then diluted to 100 μM in 100% DMSO. 100 μM of the compound solution is then diluted to […] in HEPES-Tyrode BSA buffer, making 10× stock solutions.
# Preparation of EX 00000776 (MMF): 2.3 mg of EX 00000776 is dissolved in 530.5 μl of 100% DMSO at a concentration of 10 mM. The compound solution is then diluted to 5 mM in 100% DMSO. 5 mM of the compound solution is then diluted to 50 µM in HEPES-Tyrode BSA buffer, making 10× stock solutions.
# ADP is dissolved in distilled water at concentration of 100 mM. 100 mM ADP are further diluted in HEPES-Tyrode BSA buffer to 10 mM and then secondarily diluted to 100 μM in HEPES-Tyrode BSA buffer, making a 10× stock.
# Eighty or forty microliters of PRP is added into a well of a 1 ml deep well plate containing 560 μl or 280 μl of HEPES-Tyrode BSA buffer. Eighty or forty microliters of the 10× compound solution is added per well and incubated at 37° C./5% CO2 for 30 mins prior to addition of ADP. Eighty or forty microliters of 100 μM ADP is added per well and the plate incubated at 37° C./5% CO2 for 5 mins. After 5 minutes of incubation, 300 microliters per well of stimulated PRP is transferred to a sterile 0.22 um PVDF 96-well filter plate. A 96 well microplate is placed under the filter plate to collect supernatant after centrifugation at 1100 rpm for 5 mins. […]
# [5] = 60 mg/kg qd for the last three weeks, vs bleomycin/vehicle mice
# [6] = treatment initiated two weeks after instillation of bleomycin until end of experiment
structure (smiles),measurement,setting,value
CCOc1c(C(=O)O)cnn1-c1cccc(-c2cccc(C)c2OCc2ccc3c(c2C)CCN(C2CCOCC2)C3)n1 [Compound 114],"hypoxia-driven TGFβ2 production, statistical significance of reduction","[1]; 10 μM Compound 114, hypoxia 1% O2",Statistically significant reduction
same,hypoxia-induced TGFβ2 production,"[1]; hypoxia 1% O2, 48 hrs, ODQ, supernatant, cells from 3 donors",inhibits hypoxia-induced TGFβ2 levels; also recorded: reduced hypoxia-driven TGFβ2 production in a concentration-dependent manner
same,bleomycin-induced dermal fibrosis,"[2]; doses of 1, 3 or 5 mg/kg for the last two weeks",also ameliorated bleomycin-induced dermal fibrosis
same,effects on dermal fibrosis compared with nintedanib,"[2]; doses of 1, 3 or 5 mg/kg vs nintedanib 60 mg/kg qd",within the range of those observed with nintedanib
same,dose-dependency of effect on dermal fibrosis,"[2]; doses of 1, 3 or 5 mg/kg, trends for dermal thickness and myofibroblast counts",no clear dose-dependency was observed
same,fibrotic readouts of pulmonary fibrosis,"[3]; doses of 1, 3 or 10 mg/kg",significantly improved the fibrotic readouts
same,dose trend for the Ashcroft score,"[3]; doses of 1, 3 or 10 mg/kg, differences did not reach statistical significance",tendency towards more pronounced effects with higher doses
same,ADP-induced CXCL4 production,"[4]; 0.1 μM, 10 μM ADP",reduced ADP-induced CXCL4 production in 9 out of 10 donors
same,ADP-induced CXCL4 production,"[4]; 1 μM and 10 μM, 10 μM ADP",attenuated the ADP-induced CXCL4 production in all 10 donors
same,"ADP-induced CXCL4 production, percentage of Max of all donors","[4]; 10 μM, 1 μM, 0.1 μM, 10 μM ADP, compared to ADP/DMSO",significantly reduced ADP-induced CXCL4 production in a dose-dependent manner
same,"potency/efficacy on ADP-induced CXCL4 production relative to nintedanib, mycophenolate (MMF) and riociguat",[4]; FIG. 5,more potent/more efficacious
"COC(=O)N(C)c1c(N)nc(-c2nn(Cc3ccccc3F)c3ncccc23)nc1N [EX76637, riociguat]",bleomycin-induced dermal fibrosis,[2]; doses of 1 mg/kg,also ameliorated bleomycin-induced dermal fibrosis
same,effects on dermal fibrosis compared with Compound 114,[2]; doses of 1 mg/kg,comparable to those of Compound 114
same,bleomycin-induced pulmonary fibrosis,[3]; 1 mg/kg bid p.o.,also ameliorated bleomycin-induced pulmonary fibrosis
"COC(=O)c1ccc2c(c1)NC(=O)/C2=C(\Nc1ccc(N(C)C(=O)CN2CCN(C)CC2)cc1)c1ccccc1 [nintedanib, Nintedanib ethanesulfonate]",dermal thickness,[2]; [5],reduced
same,hydroxyproline content (skin),[2]; [5],lower
same,myofibroblast counts,[2]; [5],decreased
same,Ashcroft scores,[3]; [6],reduced
same,collagen-covered area,[3]; [6],reduced
same,hydroxyproline content (lung),[3]; [6],reduced
same,effect on ADP-induced CXCL4 production,"[4]; standards of care, 10 μM ADP",ineffective; also recorded: Minimal to no effect
COC(=O)N(C)c1c(N)nc(-c2nn(Cc3ccccc3F)c3ncccc23)nc1N [riociguat],effect on ADP-induced CXCL4 production,"[4]; doses equivalent to Compound 114, 10 μM ADP",minimal effect; also recorded: Minimal to no effect
